Data on eight compounds can be found in US20260356809A1 (The United States of America, as represented by the …, priority 2022, published 2026).

Read-outs that look alike come from different tables or passages of the source.

Assay [1] relates to cocaine self-administration in rats. The settings on record: general knowledge statement; cited from earlier work.
Assay [2] concerns the target T1, 5-HT2A (Homo sapiens, UniProt P28223). Put plainly: 5-HT2A IP-1, agonist. Type of assay: cell-based. The following applies: agonist mode.
The target of assay [3] is T2, 5-HT2B (Homo sapiens, UniProt P41595). Put plainly: 5-HT2B IP-1, agonist. The class given is cell-based. The following applies: agonist mode; for EC50: read-out: 5-HT2B IP-1 EC50 ± SEM.
T2 sequence (P41595 whole entry, species assumed): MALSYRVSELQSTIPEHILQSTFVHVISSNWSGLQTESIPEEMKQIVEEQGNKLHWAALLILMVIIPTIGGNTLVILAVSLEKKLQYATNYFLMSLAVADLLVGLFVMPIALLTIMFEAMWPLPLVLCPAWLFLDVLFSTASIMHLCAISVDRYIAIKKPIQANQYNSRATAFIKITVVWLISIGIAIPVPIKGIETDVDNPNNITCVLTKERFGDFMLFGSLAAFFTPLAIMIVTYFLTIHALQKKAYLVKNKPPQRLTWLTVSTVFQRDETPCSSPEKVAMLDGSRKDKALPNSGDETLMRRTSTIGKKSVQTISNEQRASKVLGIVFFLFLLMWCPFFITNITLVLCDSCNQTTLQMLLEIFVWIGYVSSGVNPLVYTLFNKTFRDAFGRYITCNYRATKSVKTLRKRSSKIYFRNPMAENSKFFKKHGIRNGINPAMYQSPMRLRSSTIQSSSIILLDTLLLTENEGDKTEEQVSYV
Assay [4] addresses T1, 5-HT2A. The class given is cell-based. The settings on record: antagonist mode.
For assay [5], the target named is T3, 5-HT2C (Homo sapiens, UniProt P28335).
T3 sequence (P28335 33-458): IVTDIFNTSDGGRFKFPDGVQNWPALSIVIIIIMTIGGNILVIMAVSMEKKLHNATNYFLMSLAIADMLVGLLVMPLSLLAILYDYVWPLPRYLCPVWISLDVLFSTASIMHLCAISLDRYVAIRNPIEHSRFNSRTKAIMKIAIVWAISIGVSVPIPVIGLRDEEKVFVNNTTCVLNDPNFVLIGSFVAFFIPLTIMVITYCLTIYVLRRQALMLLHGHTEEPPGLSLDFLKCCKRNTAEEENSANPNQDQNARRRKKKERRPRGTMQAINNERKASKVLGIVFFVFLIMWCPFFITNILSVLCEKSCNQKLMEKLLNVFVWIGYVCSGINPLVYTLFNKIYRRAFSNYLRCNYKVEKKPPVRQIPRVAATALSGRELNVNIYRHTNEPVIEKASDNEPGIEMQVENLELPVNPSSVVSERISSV
The experiment in a line: 5-HT2C IP-1, agonist. Type of assay: cell-based.

For assay [6], the target named is T2, 5-HT2B. The experiment in a line: 5-HT2B IP-1, antagonist. Type of assay: cell-based.
Assay [7] concerns the target T4, 5-HT1A (Homo sapiens, UniProt P08908).
T4 sequence (P08908 1-422): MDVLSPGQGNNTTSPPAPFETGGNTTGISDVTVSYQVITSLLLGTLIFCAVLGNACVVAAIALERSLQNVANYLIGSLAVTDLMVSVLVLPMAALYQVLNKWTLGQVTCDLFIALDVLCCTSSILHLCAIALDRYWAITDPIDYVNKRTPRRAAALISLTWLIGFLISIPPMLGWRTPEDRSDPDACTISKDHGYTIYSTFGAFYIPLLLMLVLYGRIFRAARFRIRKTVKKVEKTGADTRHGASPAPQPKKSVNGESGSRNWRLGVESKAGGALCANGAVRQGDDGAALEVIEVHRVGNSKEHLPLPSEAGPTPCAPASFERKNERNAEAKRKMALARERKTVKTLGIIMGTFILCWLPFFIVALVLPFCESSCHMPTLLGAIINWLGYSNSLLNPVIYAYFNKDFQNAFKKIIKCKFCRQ
The experiment in a line: 5-HT1A [35S]GTPγS, agonist. Type of assay: biochemical. (GTPγS resists hydrolysis and so accumulates on activated G proteins.)

The target of assay [8] is T3, 5-HT2C. The experiment in a line: 5-HT2C IP-1, antagonist. The class given is cell-based.
Assay [9] has as its target T5, D2LR (Homo sapiens, UniProt P14416).
T5 construct: expressed in transfected cells; host or cells: HEK 293T, transient
Type of assay: cell-based. The settings on record: miniG recruitment assay.

The subject of assay [10] is cocaine self-administration in rats. Put plainly: cocaine self-administration under progressive ratio (PR) break-point. The class given is in vivo, Long-Evans rats. The following applies: i.p. 30 min prior.
The target in assay [11] is T5, D2LR. The class given is cell-based. The following applies: GPA GαoA assay.
Assay [12] has as its target T2, 5-HT2B. Put plainly: 5-HT2B off-target binding, [3H]5-HT. The settings on record: read-out: 5-HT2B Ki ± SEM.
For the next assay, the target named is T6, D4R (Homo sapiens, UniProt P21917).
T6 sequence (P21917 1-419): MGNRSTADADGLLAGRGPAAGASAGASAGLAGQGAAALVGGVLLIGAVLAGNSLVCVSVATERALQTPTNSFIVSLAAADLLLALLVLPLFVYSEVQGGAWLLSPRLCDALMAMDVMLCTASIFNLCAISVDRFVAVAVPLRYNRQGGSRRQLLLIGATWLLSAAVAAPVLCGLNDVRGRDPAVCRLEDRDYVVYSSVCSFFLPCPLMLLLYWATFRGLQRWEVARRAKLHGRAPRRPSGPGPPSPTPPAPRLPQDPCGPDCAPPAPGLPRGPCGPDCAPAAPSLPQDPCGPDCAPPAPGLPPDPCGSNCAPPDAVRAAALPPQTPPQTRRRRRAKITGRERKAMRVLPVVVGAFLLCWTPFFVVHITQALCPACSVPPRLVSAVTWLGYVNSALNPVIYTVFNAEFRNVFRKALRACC
Put plainly: D4R off-target binding, [3H]-spiperone. The settings on record: read-out: D4R Ki ± SEM.

The target of assay [13] is T4, 5-HT1A. Put plainly: 5-HT1A off-target binding, [3H]-8-OH-DPAT. The following applies: read-out: 5-HT1A Ki ± SEM.
In another assay the target is T7, human D2L receptor (Homo sapiens, UniProt P14416).
T7 construct: expressed in transfected cells
T7 sequence (P14416 whole entry): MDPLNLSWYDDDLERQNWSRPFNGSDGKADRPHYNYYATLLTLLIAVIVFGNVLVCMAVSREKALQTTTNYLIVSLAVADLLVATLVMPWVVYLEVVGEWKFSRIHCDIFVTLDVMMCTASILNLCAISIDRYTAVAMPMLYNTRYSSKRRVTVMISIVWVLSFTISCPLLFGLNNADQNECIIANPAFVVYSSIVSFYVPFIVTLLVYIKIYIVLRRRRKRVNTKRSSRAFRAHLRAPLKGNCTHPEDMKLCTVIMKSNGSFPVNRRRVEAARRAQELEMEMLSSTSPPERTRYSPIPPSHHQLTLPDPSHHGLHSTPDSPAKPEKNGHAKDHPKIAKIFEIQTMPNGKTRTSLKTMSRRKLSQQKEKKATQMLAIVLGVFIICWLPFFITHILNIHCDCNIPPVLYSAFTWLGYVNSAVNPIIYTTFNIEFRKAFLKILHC
The experiment in a line: D2R radioligand binding, [3H]N-methylspiperone, HEK293 membranes. The following applies: read-out: D2R Ki ± SEM.

For the next assay, the target named is T8, human D3 receptor (Homo sapiens, UniProt P35462).
T8 construct: expressed in transfected cells
T8 sequence (P35462 whole entry): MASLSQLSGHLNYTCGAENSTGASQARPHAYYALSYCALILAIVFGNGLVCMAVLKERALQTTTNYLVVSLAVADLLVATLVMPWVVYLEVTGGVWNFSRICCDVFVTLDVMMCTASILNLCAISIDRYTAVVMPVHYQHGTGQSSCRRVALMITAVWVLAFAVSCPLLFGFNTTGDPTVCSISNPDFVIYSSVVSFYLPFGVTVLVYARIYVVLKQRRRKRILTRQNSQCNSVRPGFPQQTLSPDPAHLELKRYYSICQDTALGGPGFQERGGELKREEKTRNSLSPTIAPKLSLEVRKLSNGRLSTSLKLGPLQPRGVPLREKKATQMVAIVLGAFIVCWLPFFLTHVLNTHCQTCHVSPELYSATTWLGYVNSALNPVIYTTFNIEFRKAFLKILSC
The experiment in a line: D3R radioligand binding, [3H]N-methylspiperone, HEK293 membranes.

T5 sequence (P14416 whole entry): as the sequence (P14416 whole entry) above
T1 sequence (P28223 whole entry, species assumed): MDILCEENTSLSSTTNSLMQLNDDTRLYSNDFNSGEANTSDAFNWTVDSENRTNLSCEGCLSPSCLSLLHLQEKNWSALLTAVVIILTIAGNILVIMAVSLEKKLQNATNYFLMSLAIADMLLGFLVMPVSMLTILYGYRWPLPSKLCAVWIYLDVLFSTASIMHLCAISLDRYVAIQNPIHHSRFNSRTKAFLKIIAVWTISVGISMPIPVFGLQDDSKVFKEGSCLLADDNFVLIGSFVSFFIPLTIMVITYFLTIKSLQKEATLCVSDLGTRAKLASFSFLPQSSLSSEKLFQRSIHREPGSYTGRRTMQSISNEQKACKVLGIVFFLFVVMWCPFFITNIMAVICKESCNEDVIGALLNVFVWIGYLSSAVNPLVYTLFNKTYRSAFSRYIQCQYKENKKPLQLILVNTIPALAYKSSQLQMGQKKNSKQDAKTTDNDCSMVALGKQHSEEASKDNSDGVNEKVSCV

For (+)-butaclamol, the “biphasic effects on cocaine self-administration” value in [1] is given as “biphasic effects”.
On to `CCc1cccc(N2CCN(CC[C@H]3CC[C@H](NC(=O)CCOC)CC3)CC2)c1Cl` [Compound 13b, N-(trans-4-(2-(4-(2-Chloro-3-ethylphenyl)piperazin-1-yl)ethyl)cyclohexyl)-3-methoxypropanamide], for which the “5-HT2A IP-1 Emax ± SEM” value on 5-HT2A [2] is 25.9 ± 1.9%; at 5-HT2A [4], 62.7 ± 5.8%. The figures for the “5-HT2B IP-1 Emax ± SEM” value at 5-HT2B [3] and at 5-HT2B [6] (antagonist mode) were less than 1% and 100 ± 0%, respectively. Further, the EC50 (in general, the concentration giving half of the maximal effect) at 5-HT2C [5] came out at 43.5 ± 5.3 nM.
As to `COCCC(=O)N[C@H]1CC[C@H](CCN2CCN(c3cccc(C(F)(F)F)n3)CC2)CC1` [Compound 13d], on 5-HT2B [3], the “5-HT2B IP-1 Emax ± SEM” value is reported as 6.66 ± 0.91% and the EC50 was 37 ± 10 nM. Further, the “5-HT2B IP-1 Emax ± SEM” value on 5-HT2B [6] was found to be 95.6 ± 2.0%. On 5-HT2B [6] (read-out: 5-HT2B IP-1 IC50 ± SEM), the IC50 (as a rule, the concentration needed to halve the response being measured) amounted to 460 ± 100 nM.
Turning to `CN(C)C(=O)N[C@H]1CC[C@H](CCN2CCN(c3cccc(Cl)c3Cl)CC2)CC1` [Compound 6a, 3-(trans-4-(2-(4-(2,3-Dichlorophenyl)piperazin-1-yl)ethyl)cyclohexyl)-1,1-dimethylurea], the “5-HT1A [35S]GTPγS Emax ± SEM” value on 5-HT1A [7] (agonist mode) was found to be 89.6 ± 3.6%. On 5-HT2C [8], this compound came in with a half-maximal inhibitory concentration (IC50) greater than 5000 nM. Further, the figures for the “5-HT2C IP-1 Emax ± SEM” value at 5-HT2C [8] (antagonist mode) and at 5-HT2C [5] (agonist mode) were 9.2 ± 2.7% and 49.2 ± 6.6%, respectively. For the same compound, the “D2R activity in words, miniG assay” value on D2LR [9] is reported as “D2R partial agonists”. Further, the “effect on lever pressing / PR break-point for cocaine” value in assay [10] is on record as “reduce the reinforcing efficacy of cocaine”. Also, at 5-HT2C [5] (agonist mode, read-out: 5-HT2C IP-1 EC50 ± SEM), the EC50 was found to be 215 ± 22 nM. Further, on D2LR [11], the “D2R activity in words, GPA assay” value is reported as “maximal effect similar to quinpirole”.
`O=c1[nH]c2ccccc2n1C1CCN(CCCC(c2ccc(F)cc2)c2ccc(F)cc2)CC1` [pimozide]: the “biphasic effects on cocaine self-administration” value in assay [1] was “biphasic effects”.
For `COCCC(=O)N[C@H]1CC[C@H](CCN2CCN(c3cccc(OC)c3F)CC2)CC1` [Compound 13c, N-(trans-4-(2-(4-(2-Fluoro-3-methoxyphenyl)piperazin-1-yl)ethyl)cyclohexyl)-3-methoxypropanamide], the inhibitory constant (Ki) (in general, the dissociation constant of the complex between target and ligand, obtained from inhibition or displacement) amounted to 29.6 ± 9.5 nM at 5-HT2B [12], 734 ± 16 nM on D4R and 69.9 ± 1.7 nM on 5-HT1A [13]. Also, the concentration giving a half-maximal response (EC50) on 5-HT1A [7] is 121 ± 10 nM; at 5-HT2B [3], greater than 10000 nM. Moreover, the “5-HT2B IP-1 Emax ± SEM” value on 5-HT2B [3] is given as less than 1%; on 5-HT2B [6] (antagonist mode), 82 ± 18%. Further, the “D2R activity in words, miniG assay” value on D2LR [9] is on record as “full agonists”. Further, the IC50 against 5-HT2B [6] came to 519 ± 81 nM. The “D2R activity in words, GPA assay” value on D2LR [11] is given as “full agonists”.
As for `NCCc1ccc(O)c(O)c1` [Dopamine, dopamine, reference compound], the “D2R activity in words, miniG assay” value at D2LR [9] is “equivalent maximal responses”.
On to `COCC(=O)N[C@H]1CC[C@H](CCN2CCN(c3cccc(Cl)c3Cl)CC2)CC1` [Compound 14d, N-(trans-4-(2-(4-(2,3-Dichlorophenyl)piperazin-1-yl)ethyl)cyclohexyl)-2-methoxyacetamide], for which the Ki is 7.67 ± 0.69 nM at human D2L receptor; no more than 1 nM at human D3 receptor; 0.268 ± 0.065 nM on human D3 receptor ([3H]N-methylspiperone, mean ± SEM of at least three experiments, read-out: D3R Ki ± SEM). In addition, the “D2R Ki / D3R Ki” value on human D3 receptor (ratio of Ki values, [3H]N-methylspiperone) is recorded as 28.6.
